Experimental data taken from patent US10857105B2, “Compounds and compositions for intracellular delivery of therapeutic agents” (ModernaTX, Inc., priority 2017, dated 2020).
Marks after values point to notes of the source that are not given here.

Experiments:
[1] = test system: IP-10; test: Cytokine induction (IP-10) in rats after intravenous administration; format: in vivo, rat; conditions: for IP-10 induction: rat, 48 hours
Experimental: The expression of hEPO and cytokine induction in rats intravenously administered a nanoparticle composition at a dose of 2.0 mpk was measured at 6 h.
Table 19A summarizes the hEPO expression, IP-10 induction, liver and spleen levels, and alanine aminotransferase (ALT) and aspartate aminotransferase (AST) measured upon intravenous administration of formulations including Compounds 48, 49, and 50 to rat at 0.2 and 2 mpk and hEPO mRNA. hEPO concentrations were measured 6 hours after administration, while cytokine induction and liver and spleen levels were measured 48 hours after administration. hEPO and IP-10 concentrations are presented in pg/ml, while liver levels are provided in ng/g. ALT and AST levels are presented in international units.

[2] = test system: sC5b-9; test: Complement activation: sC5b-9 levels in human cells contacted in vitro with nanoparticle compositions; format: cell-based
Experimental: Complement activation assists in the clearance of pathogens from an organism. As it is undesirable that a subject's body recognize a nanoparticle composition as a foreign invader, low complement system activation upon administration of such a composition is preferred. The complex sC5b-9 is a marker for the activation of the complement system. Thus, human cells were contacted in vitro with nanoparticle compositions according to Table 1A and were evaluated for sC5b-9 levels.

[3] = test system: Sprague Dawley rat liver; test: Lipid remaining in rat liver tissue 48 h post dose (LC-MS/MS); format: in vivo; conditions: Sprague Dawley rat liver 48 h after 2 mg/kg bolus dose mRNA
From the text: Similar results were obtained in the Sprague Dawley rats using human erythropoietin (hEPO) encoding mRNA (FIG. 29C). […] Compound 18 and compound 25 provided a good balance of delivery efficiency and pharmacokinetics.

[4] = test system: cynomolgus monkey; test: One-month toxicological evaluation with weekly dosing in cynomolgus monkey; format: in vivo
Experimental: NHP studies: Nonhuman primate studies were conducted using naïve cynomolgus monkeys (cynos), 2-4 years old, weighing 2-6 kg. No treatment randomization or blinding methods were used for any of the animal studies. Sample sizes were determined by the resource equation method. For injection, mRNA-LNPs in phosphate buffered saline (PBS) were administered by 60-minute intravenous infusion using a temporary indwelling catheter inserted in a peripheral vein.
(§1) Serum ALT and AST levels: Samples were analyzed using a Modular Analytics analyzer.
Serum C5b9 levels: C5b9 sample analysis was performed using an ELISA method. The kit used was Human C5b-9 ELISA Set and Reagent Set B from BD Bioscience. Study samples were analyzed in singlicate diluted 1/100.
bDNA for measurement of mRNA levels: mRNA sample analysis (bDNA method) was performed using the QuantiGene® 2.0 Reagent System kit from Affymetrix. Study samples were lysed prior to analysis using the QuantiGene Sample Processing Kit (Blood samples). Study samples were analyzed in duplicate diluted between 1/100 and 1/1250000.
(§2) Next, tolerability and safety of the compound 18-based LNPs in vivo was tested. A full toxicological evaluation of compound 18-based LNPs in both Sprague Dawley rat and cynomolgus monkey was performed using a standard one-month study with weekly dosing at three dose levels in each species. Rats were dosed at 0.05, 0.5, and 2 mg/kg and a non-human primates was dosed at 0.1, 0.3, and 1 mg/kg. LNP-related toxicities associated with MC3-based LNP systems are generally associated with immunological (cytokine and complement activation) and hepatic injury. […] FIGS. 32 and 33 highlight the day 30 levels of alanine transferase (ALT, FIG. 32A) and aspartate aminotransferase (AST, FIG. 32B), two indicators of liver damage.

[5] = test system: mice; test: hEPO expression on repeat intravenous dosing of hEPO mRNA LNPs in mice; format: in vivo; conditions: 0.5 mg/kg hEPO mRNA intravenously to mice
Experimental: Blood collection and analysis for hEPO. Blood was collected from mice or rats via the tail vein and hEPO concentrations were determined using a hEPO ELISA assay.
Repeat dosing of mRNA in an MC3-based LNP for a therapeutic indication would be expected to lead to accumulation of MC3 in tissues, based on the measured half-life. Therefore it was investigated whether the favorable single dose pharmacokinetics of compound 18 were maintained with weekly dosing. Clearance of MC3 and compound 18 from multiple mouse tissues was measured after dosing 0.05 mg/kg mRNA on day 1, 8 and 15 (FIG. 30A). Following dosing with MC3 LNPs, lipid was detected in liver, spleen, plasma, kidney, heart and lung; with liver and spleen containing the largest concentrations (FIG. 30A, for full panel of tissues see FIG. 35A). […] Compound 18 was also detected in plasma, lung, and kidney, but not in heart (FIG. 35A).

[6] = test system: Sprague Dawley rat; test: One-month toxicological evaluation with weekly dosing in rat; format: in vivo
Experimental: as §1, §2

[7] = test system: ApoE knockout mice; test: Expression study in ApoE knockout mice; format: in vivo; conditions: compound 18 based LNPs
[8] = test system: mouse liver tissue; test: Disappearance of parent lipid and primary metabolite from mouse liver after 0.25 mg/kg mRNA on days 1, 8 and 15; format: in vivo
Experimental: In vitro metabolite identification studies using compound 18 were also performed. […] The disappearance of parent compound 18 and the primary metabolite, compound 166, from mouse liver tissue was measured after dosing 0.25 mg/kg mRNA on days 1, 8, and 15.

| SMILES | IP-10 induction ([1]; intravenous 0.2 mpk) [pg/mL] | IP-10 induction ([1]; intravenous 2 mpk) [pg/mL] | IP-10 ([1]; rats, intravenous 2.0 mpk, hEPO nanoparticle compositions, 6 hours) [pg/mL] | Fold increase in sC5b-9 levels versus saline [2] | % dose remaining Rat liver tissue, 48 h [3] | monocyte chemo-attractive protein (MCP-1) [4] | ALT and AST levels, day 30 ([4]; 1 mg/kg dose) | circulating mRNA levels after each dose ([4]; bDNA) | toxicological findings ([4]; weekly dosing one month, 0.1, 0.3 and 1 mg/kg) | hEPO expression on repeat dosing [5] | ALT and AST levels, day 30, relative to PBS control ([6]; any dose level) | toxicological findings ([6]; weekly dosing one month, 0.05, 0.5 and 2 mg/kg) | expression in ApoE knockout mice [7] | clearance from mouse liver tissue [8] |
| --- | --- | --- | --- | --- | --- | --- | --- | --- | --- | --- | --- | --- | --- | --- |
| CCCCCC=CCC=CCCCCCCCCC(CCCCCCCCC=CCC=CCCCCC)OC(=O)CCCN(C)C (centres unmarked) [MC3, heptatriaconta-6,9,28,31-tetraen-19-yl 4-(dimethylamino)butanoate, reference compound] | 2 | 596 | 688.3 | 0.73 | 61^e % |  |  |  |  |  |  |  |  |  |
| CCCCCCCCCOC(=O)CCCCCCCN(CCO)CCCCCCCC(=O)OC(CCCCCCCC)CCCCCCCC [Compound 18, Heptadecan-9-yl 8-((2-hydroxyethyl)(8-(nonyloxy)-8-oxooctyl)amino)octanoate] |  |  |  |  |  | slight variation above baseline | at the same level as the control | consistent exposures | minimal findings at all dose levels | Consistent levels of expression | minimal elevation | no adverse findings | almost complete loss in expression | rapid clearance |
